Measured values taken from PubChem BioAssay AID1259407 (Chemical Carcinogenesis Research Information System (CCRIS), 2018).
The source made the active and inactive calls. The rule behind the calls is not given here.

Tested on: CCRIS mutagenicity, Ames/micronucleus/aberration tests
Test: CCRIS mutagenicity studies
[1] = Test System: AMES SALMONELLA TYPHIMURIUM, Strain/Indicator: TA97, Metabolic Activation: HAMSTER, LIVER, S-9, AROCLOR 1254 (10 OR 30%), Method: PREINCUBATION
[2] = Test System: AMES SALMONELLA TYPHIMURIUM, Strain/Indicator: TA97, Metabolic Activation: NONE, Method: PREINCUBATION
[3] = Test System: AMES SALMONELLA TYPHIMURIUM, Strain/Indicator: TA97, Metabolic Activation: RAT, LIVER, S-9, AROCLOR 1254 (10 OR 30%), Method: PREINCUBATION
[4] = Test System: AMES SALMONELLA TYPHIMURIUM, Strain/Indicator: TA98, Metabolic Activation: HAMSTER, LIVER, S-9, AROCLOR 1254 (10 OR 30%), Method: PREINCUBATION
[5] = Test System: AMES SALMONELLA TYPHIMURIUM, Strain/Indicator: TA98, Metabolic Activation: NONE, Method: PREINCUBATION
[6] = Test System: AMES SALMONELLA TYPHIMURIUM, Strain/Indicator: TA98, Metabolic Activation: RAT, LIVER, S-9, AROCLOR 1254 (10 OR 30%), Method: PREINCUBATION
[7] = Test System: AMES SALMONELLA TYPHIMURIUM, Strain/Indicator: TA100, Metabolic Activation: HAMSTER, LIVER, S-9, AROCLOR 1254 (10 OR 30%), Method: PREINCUBATION
[8] = Test System: AMES SALMONELLA TYPHIMURIUM, Strain/Indicator: TA100, Metabolic Activation: NONE, Method: PREINCUBATION
[9] = Test System: AMES SALMONELLA TYPHIMURIUM, Strain/Indicator: TA100, Metabolic Activation: RAT, LIVER, S-9, AROCLOR 1254 (10 OR 30%), Method: PREINCUBATION
[10] = Test System: AMES SALMONELLA TYPHIMURIUM, Strain/Indicator: TA1535, Metabolic Activation: HAMSTER, LIVER, S-9, AROCLOR 1254 (10 OR 30%), Method: PREINCUBATION
[11] = Test System: AMES SALMONELLA TYPHIMURIUM, Strain/Indicator: TA1535, Metabolic Activation: NONE, Method: PREINCUBATION
[12] = Test System: AMES SALMONELLA TYPHIMURIUM, Strain/Indicator: TA1535, Metabolic Activation: RAT, LIVER, S-9, AROCLOR 1254 (10 OR 30%), Method: PREINCUBATION
[13] = Test System: AMES SALMONELLA TYPHIMURIUM, Strain/Indicator: TA1537, Metabolic Activation: HAMSTER, LIVER, S-9, AROCLOR 1254 (30%), Method: PREINCUBATION
[14] = Test System: AMES SALMONELLA TYPHIMURIUM, Strain/Indicator: TA1537, Metabolic Activation: NONE, Method: PREINCUBATION
[15] = Test System: AMES SALMONELLA TYPHIMURIUM, Strain/Indicator: TA1537, Metabolic Activation: RAT, LIVER, S-9, AROCLOR 1254 (30%), Method: PREINCUBATION
[16] = Test System: AMES SALMONELLA TYPHIMURIUM, Strain/Indicator: TA98, Metabolic Activation: HAMSTER, LIVER, S-9, AROCLOR 1254 (10%), Method: PREINCUBATION
[17] = Test System: AMES SALMONELLA TYPHIMURIUM, Strain/Indicator: TA98, Metabolic Activation: RAT, LIVER, S-9, AROCLOR 1254 (10%), Method: PREINCUBATION
[18] = Test System: AMES SALMONELLA TYPHIMURIUM, Strain/Indicator: TA100, Metabolic Activation: HAMSTER, LIVER, S-9, AROCLOR 1254 (10%), Method: PREINCUBATION
[19] = Test System: AMES SALMONELLA TYPHIMURIUM, Strain/Indicator: TA100, Metabolic Activation: RAT, LIVER, S-9, AROCLOR 1254 (10%), Method: PREINCUBATION
[20] = Test System: AMES SALMONELLA TYPHIMURIUM, Strain/Indicator: TA1535, Metabolic Activation: HAMSTER, LIVER, S-9, AROCLOR 1254 (10%), Method: PREINCUBATION
[21] = Test System: AMES SALMONELLA TYPHIMURIUM, Strain/Indicator: TA1535, Metabolic Activation: RAT, LIVER, S-9, AROCLOR 1254 (10%), Method: PREINCUBATION
[22] = Test System: AMES SALMONELLA TYPHIMURIUM, Strain/Indicator: TA98, Metabolic Activation: HAMSTER, LIVER, S-9, AROCLOR 1254 (30%), Method: PREINCUBATION
[23] = Test System: AMES SALMONELLA TYPHIMURIUM, Strain/Indicator: TA98, Metabolic Activation: RAT, LIVER, S-9, AROCLOR 1254 (30%), Method: PREINCUBATION
[24] = Test System: AMES SALMONELLA TYPHIMURIUM, Strain/Indicator: TA100, Metabolic Activation: HAMSTER, LIVER, S-9, AROCLOR 1254 (30%), Method: PREINCUBATION
[25] = Test System: AMES SALMONELLA TYPHIMURIUM, Strain/Indicator: TA100, Metabolic Activation: RAT, LIVER, S-9, AROCLOR 1254 (30%), Method: PREINCUBATION

SMILES: COC(=O)[C@H]1[C@H]2C[C@@H]3c4[nH]c5cc(OC)ccc5c4CCN3C[C@H]2C[C@@H](OC(=O)/C=C/c2cc(OC)c(OC)c(OC)c2)[C@@H]1OC
- mutagenic call [1]: inactive; negative
- mutagenic call [2]: inactive; negative
- mutagenic call [3]: inactive; negative
- mutagenic call [4]: inactive; negative
- mutagenic call [5]: inactive; negative
- mutagenic call [6]: inactive; negative
- mutagenic call [7]: inactive; negative
- mutagenic call [8]: inactive; negative
- mutagenic call [9]: inactive; negative
- mutagenic call [10]: inactive; negative
- mutagenic call [11]: inactive; negative
- mutagenic call [12]: inactive; negative
- mutagenic call [13]: inactive; negative
- mutagenic call [14]: inactive; negative
- mutagenic call [15]: inactive; negative

SMILES: CC(=O)NS(=O)(=O)c1ccc(N)cc1
- mutagenic call (End Point: IN VITRO CHROMOSOMAL ABERRATIONS, Test System: CHINESE HAMSTER OVARY CELLS, Metabolic Activation: NONE): inactive; negative
- mutagenic call (End Point: IN VITRO CHROMOSOMAL ABERRATIONS, Test System: CHINESE HAMSTER OVARY CELLS, Metabolic Activation: RAT, LIVER, S-9, AROCLOR 1254): inactive; negative
- mutagenic call [16]: inactive; negative
- mutagenic call [5]: inactive; negative
- mutagenic call [17]: inactive; negative
- mutagenic call [18]: inactive; negative
- mutagenic call [8]: inactive; negative
- mutagenic call [19]: inactive; negative
- mutagenic call [20]: inactive; negative
- mutagenic call [11]: inactive; negative
- mutagenic call [21]: inactive; negative
- mutagenic call (Test System: AMES SALMONELLA TYPHIMURIUM, Strain/Indicator: TA1537, Metabolic Activation: HAMSTER, LIVER, S-9, AROCLOR 1254 (10%), Method: PREINCUBATION): inactive; negative
- mutagenic call [14]: inactive; negative
- mutagenic call (Test System: AMES SALMONELLA TYPHIMURIUM, Strain/Indicator: TA1537, Metabolic Activation: RAT, LIVER, S-9, AROCLOR 1254 (10%), Method: PREINCUBATION): inactive; negative

SMILES: CCCCCCC[CH2][Sn]([CH2]CCCCCCC)([S]CC(=O)OCCCCCC(C)C)[S]CC(=O)OCCCCCC(C)C
- mutagenic call [1]: inactive; negative
- mutagenic call [2]: inactive; negative
- mutagenic call [3]: inactive; negative
- mutagenic call [4]: inactive; negative
- mutagenic call [5]: inactive; negative
- mutagenic call [6]: inactive; negative
- mutagenic call [7]: inactive; negative
- mutagenic call [8]: active; positive
- mutagenic call [9]: inactive; negative
- mutagenic call [10]: inactive; negative
- mutagenic call [11]: inactive; negative
- mutagenic call [12]: inactive; negative

SMILES: O[C@H]1[C@H]2O[C@H]2c2c(ccc3ccccc23)[C@@H]1O
- mutagenic call [2]: active; positive
- mutagenic call [5]: active; positive
- mutagenic call [8]: active; positive
- mutagenic call (Test System: AMES SALMONELLA TYPHIMURIUM, Strain/Indicator: TA100, Metabolic Activation: NONE, Method: STANDARD PLATE): active; positive
- mutagenic call (Test System: AMES SALMONELLA TYPHIMURIUM, Strain/Indicator: TA104, Metabolic Activation: NONE, Method: PREINCUBATION): active; positive
- mutagenic call (Test System: CHINESE HAMSTER V-79, Strain/Indicator: V-79/6-THIOGUANINE, Metabolic Activation: NONE): active; positive

SMILES: CCCCCCC(=O)O
- mutagenic call (Test System: AMES SALMONELLA TYPHIMURIUM, Strain/Indicator: TA97, Metabolic Activation: HAMSTER, LIVER, S-9, AROCLOR 1254 (10%), Method: PREINCUBATION): inactive; negative
- mutagenic call (Test System: AMES SALMONELLA TYPHIMURIUM, Strain/Indicator: TA97, Metabolic Activation: HAMSTER, LIVER, S-9, AROCLOR 1254 (30%), Method: PREINCUBATION): inactive; negative
- mutagenic call [2]: inactive; negative
- mutagenic call (Test System: AMES SALMONELLA TYPHIMURIUM, Strain/Indicator: TA97, Metabolic Activation: RAT, LIVER, S-9, AROCLOR 1254 (10%), Method: PREINCUBATION): inactive; negative
- mutagenic call (Test System: AMES SALMONELLA TYPHIMURIUM, Strain/Indicator: TA97, Metabolic Activation: RAT, LIVER, S-9, AROCLOR 1254 (30%), Method: PREINCUBATION): inactive; negative
- mutagenic call [16]: inactive; negative
- mutagenic call [22]: inactive; negative
- mutagenic call [5]: inactive; negative
- mutagenic call [17]: inactive; negative
- mutagenic call [23]: inactive; negative
- mutagenic call [18]: inactive; negative
- mutagenic call [24]: inactive; negative
- mutagenic call [8]: inactive; negative
- mutagenic call [19]: inactive; negative
- mutagenic call [25]: inactive; negative
- mutagenic call [20]: inactive; negative
- mutagenic call (Test System: AMES SALMONELLA TYPHIMURIUM, Strain/Indicator: TA1535, Metabolic Activation: HAMSTER, LIVER, S-9, AROCLOR 1254 (30%), Method: PREINCUBATION): inactive; negative
- mutagenic call [11]: inactive; negative
- mutagenic call [21]: inactive; negative
- mutagenic call (Test System: AMES SALMONELLA TYPHIMURIUM, Strain/Indicator: TA1535, Metabolic Activation: RAT, LIVER, S-9, AROCLOR 1254 (30%), Method: PREINCUBATION): inactive; negative
- mutagenic call [13]: inactive; negative
- mutagenic call [14]: inactive; negative
- mutagenic call [15]: inactive; negative

SMILES: N[C@@H](CS/C=C/CCl)C(=O)O
- mutagenic call [5]: inactive; negative
- mutagenic call [8]: inactive; negative
- mutagenic call (Test System: AMES SALMONELLA TYPHIMURIUM, Strain/Indicator: TA2638, Metabolic Activation: NONE, Method: PREINCUBATION): inactive; negative

SMILES: CC1(C(Cl)Cl)C2[C@@H](Cl)[C@H](Cl)C1(C(Cl)Cl)[C@@H](Cl)[C@@H]2Cl (stereo not given in full)
- mutagenic call [8]: inactive; negative

SMILES: Clc1ccc(C(Cl)(Cl)Cl)cc1Cl
- mutagenic call [22]: active; positive
- mutagenic call [5]: inactive; negative
- mutagenic call [23]: active; positive
- mutagenic call [24]: active; positive
- mutagenic call [8]: inactive; negative
- mutagenic call [25]: active; positive
